The structures appear in SMILES notation.

Drawing on ChEMBL document CHEMBL3886685, “Nitrogen-containing bicyclic aromatic heterocyclic compound” (2016), this text covers IC50 for 32 molecules.

This assay addresses Cathepsin S (Homo sapiens, UniProt P25774). The assay is described as follows: Inhibition Assay: 5 μL of a human cathepsin S enzyme (R&D1183-CY-010) was added to a 96-well plate so as to be 20 ng/well. Next, 10-fold dilution of the test compound (a 10 mM DMSO solution) was serially performed with a buffer solution for assay (a solution of 50 mM sodium methoxide, 250 mM sodium chloride and 5 mM dithiothreitol (DTT), adjusted to pH=4.5 with 1 N hydrochloric acid) six times such that the final concentration becomes 0.1 nM to 10 μM then, 20 μL of each of the solutions was added to the wells (the final DMSO concentration was 0.1%), and 25 μL of synthetic substrate VVR-AMC (3211-V manufactured by PEPTIDE […], INC.) was added thereto such that the final concentration becomes 40 μM, thereby starting a enzyme reaction. A fluorescence intensity (an excitation wavelength: 380 nm and a fluorescent wavelength: 460 nm) was measured at 37° C. for 10 minutes immediately after the start of the reaction using a fluorescence spectrophotometer (SPECTRA MAX GEMINI, manu.

Cathepsin S, sequence (P25774 whole entry): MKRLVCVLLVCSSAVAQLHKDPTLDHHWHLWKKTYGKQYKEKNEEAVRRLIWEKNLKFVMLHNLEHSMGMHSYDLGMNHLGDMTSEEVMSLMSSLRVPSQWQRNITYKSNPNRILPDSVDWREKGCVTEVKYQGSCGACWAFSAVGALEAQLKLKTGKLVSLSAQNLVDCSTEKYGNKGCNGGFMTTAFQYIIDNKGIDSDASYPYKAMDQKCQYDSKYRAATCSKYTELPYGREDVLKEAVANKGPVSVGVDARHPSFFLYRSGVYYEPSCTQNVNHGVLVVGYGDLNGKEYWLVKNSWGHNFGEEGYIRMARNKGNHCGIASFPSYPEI

As for `CCOc1ccc(-c2nc(C#N)nc3c2ccn3CC(=O)NC2CCN(C)CC2)cc1C(F)(F)F`, the IC50 – broadly, the concentration needed to halve the response being measured – stood at 2.9 nM.
`N#Cc1nc(-c2ccc(OCCC3CCN(CCO)CC3)c(C(F)(F)F)c2)c2ccn(CC3CCOC3)c2n1` (configuration not stated) registered an IC50 of 3.1 nM.
For `Cn1c(C(F)(F)F)nc2c(-c3cnc(OCCC4CCNCC4)c(C(F)(F)F)c3)nc(C#N)nc21`, the IC50 was 3.3 nM.
The molecule `CN1CCC[C@H]1C(=O)N1CCC(CCOc2ccc(-c3nc(C#N)nc4c3ccn4CC3CCOC3)cc2C(F)(F)F)CC1` (some centres not stated) returned an IC50 of 4.7 nM.
The same measure for `CCN1CCC(CCOc2ncc(-c3nc(C#N)nc4c3ccn4C)cc2C(F)(F)F)CC1`: 1.9 nM.
`CCN1CCN(C(=O)COc2ccc(-c3nc(C#N)nc4c3ncn4C)cc2C(F)(F)F)CC1` gave an IC50 of 2.6 nM.
The same measure for `CN1CCC[C@H]1C(=O)N1CCC(CCOc2ccc(-c3nc(C#N)nc4c3ncn4C)cc2C(F)(F)F)CC1`: 3.5 nM; for `CN1CCC[C@H]1C(=O)N1CCC(CCOc2ncc(-c3nc(C#N)nc4c3ncn4C)cc2C(F)(F)F)CC1`: 3.1 nM.
The same measure for `Cn1cnc2c(-c3ccc(OCCC4CCN(CC(=O)N5CCCC5)CC4)c(C(F)(F)F)c3)nc(C#N)nc21`: 1.6 nM; for `Cn1ccc2c(-c3ccc(SCCC4CCNCC4)c(C(F)(F)F)c3)nc(C#N)nc21`: 1.7 nM; for `Cn1ccc2c(-c3ccc(OCCC4CC5CCC(C4)N5)c(C(F)(F)F)c3)nc(C#N)nc21` (configuration not stated): 3.6 nM.
Take `N#Cc1nc(-c2cnc(OCCC3CCNCC3)c(C(F)(F)F)c2)c2ccn(CC3CCOC3)c2n1` (configuration not stated): inhibition was half-maximal at 3.4 nM (IC50).
The molecule `CCN1CCC(CCOc2ncc(-c3nc(C#N)nc4c3ncn4C)cc2C(F)(F)F)CC1` gave an IC50 of 1 nM.
The molecule `CN1CCC[C@H]1C(=O)N1CCC(CCOc2ncc(-c3nc(C#N)nc4c3ccn4C)cc2C(F)(F)F)CC1` came in with an IC50 of 4.8 nM.
The same measure for `CCN1CCC(CCOc2ccc(-c3nc(C#N)nc4c3ccn4CC3CCOC3)cc2C(F)(F)F)CC1` (configuration not stated): 3.9 nM; for `Cn1ccc2c(-c3ccc(OCC4(C)CCNCC4)c(C(F)(F)F)c3)nc(C#N)nc21`: 3.6 nM.
For `Cn1cnc2c(-c3ccc(OCCC4CCN(C(=O)CO)CC4)c(C(F)(F)F)c3)nc(C#N)nc21`, the IC50 was 6.1 nM.
The same measure for `Cn1cnc2c(-c3ccc(OCCC4CCNCC4)c(C(F)(F)F)c3)nc(C#N)nc21`: 1.7 nM; for `Cn1ccc2c(-c3ccc(OCCOC4CCNCC4)c(C(F)(F)F)c3)nc(C#N)nc21`: 2.1 nM; for `Cc1nnc(CN2CCC(CCOc3ccc(-c4nc(C#N)nc5c4ncn5C)cc3C(F)(F)F)CC2)o1`: 2.3 nM.
In the case of `CN(C)C(=O)CN1CCC(CCOc2ccc(-c3nc(C#N)nc4c3ccn4CC3CCOC3)cc2C(F)(F)F)CC1` (configuration not stated) it was 2.9 nM.
In the case of `Cn1cnc2c(-c3ccc(OCCC4CCN(CCO)CC4)c(C(F)(F)F)c3)nc(C#N)nc21` it was 0.76 nM.
`CN(C)C(=O)CN1CCC(CCOc2ccc(-c3nc(C#N)nc4c3ccn4CCO)cc2C(F)(F)F)CC1` came in with an IC50 of 1.9 nM.
The same measure for `N#Cc1nc(-c2ccc(OCCC3CCNCC3)c(C(F)(F)F)c2)c2ccn(CC3CCCO3)c2n1` (configuration not stated): 2.6 nM; for `Cn1cnc2c(-c3ccc(OCCC4CCN(CC#N)CC4)c(C(F)(F)F)c3)nc(C#N)nc21`: 2.7 nM; for `Cn1cnc2c(-c3cnc(OCCC4CCNCC4)c(C(F)(F)F)c3)nc(C#N)nc21`: 1.4 nM.
In the case of `Cn1ccc2c(-c3cnc(OCCC4CCCNC4)c(C(F)(F)F)c3)nc(C#N)nc21` (configuration not stated) it was 2.7 nM.
In the case of `CCN1CCC(CCOc2ncc(-c3nc(C#N)nc4c3ccn4CC3CCOC3)cc2C(F)(F)F)CC1` (configuration not stated) it was 2.6 nM; in that of `CCN1CCC(CCOc2ccc(-c3nc(C#N)nc4c3ncn4C)cc2C(F)(F)F)CC1`, 1.2 nM.
`Cn1cnc2c(-c3ccc(OCC(=O)N4CCNCC4)c(C(F)(F)F)c3)nc(C#N)nc21` displayed an IC50 of 8.9 nM.
In the case of `N#Cc1nc(-c2ccc(OCCC3CCNCC3)c(C(F)(F)F)c2)c2cc[nH]c2n1` it was 2.2 nM; in that of `N#Cc1nc(-c2ccc(OCCC3CCNCC3)c(C(F)(F)F)c2)c2ccn(CC3CCOC3)c2n1` (configuration not stated), 1.9 nM.
